Results taken from ChEMBL document CHEMBL1201862, “PubChem BioAssay data set” (2004).
Activity calls are given as the source filed them.

What was measured:
Vero [1] = experiment: cells; type: functional; details: Chlorocebus sabaeus
Vero [2] = experiment: cells; type: functional, cell-based; details: Chlorocebus sabaeus
[3] = biological target: T1, Microphthalmia-associated transcription factor (Homo sapiens, UniProt O75030); experiment: reducers of TRPM1 reporter luminescence, concentration series – cell-based, SK-MEL-5, cherry-picked, set 3, MITF inhibitor project, dose response (AID 493073); type: functional;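 further: SK-MEL-5 melanoma cells with luciferase driven by the MITF target TRPM1 promoter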
T1 sequence (O75030 whole entry): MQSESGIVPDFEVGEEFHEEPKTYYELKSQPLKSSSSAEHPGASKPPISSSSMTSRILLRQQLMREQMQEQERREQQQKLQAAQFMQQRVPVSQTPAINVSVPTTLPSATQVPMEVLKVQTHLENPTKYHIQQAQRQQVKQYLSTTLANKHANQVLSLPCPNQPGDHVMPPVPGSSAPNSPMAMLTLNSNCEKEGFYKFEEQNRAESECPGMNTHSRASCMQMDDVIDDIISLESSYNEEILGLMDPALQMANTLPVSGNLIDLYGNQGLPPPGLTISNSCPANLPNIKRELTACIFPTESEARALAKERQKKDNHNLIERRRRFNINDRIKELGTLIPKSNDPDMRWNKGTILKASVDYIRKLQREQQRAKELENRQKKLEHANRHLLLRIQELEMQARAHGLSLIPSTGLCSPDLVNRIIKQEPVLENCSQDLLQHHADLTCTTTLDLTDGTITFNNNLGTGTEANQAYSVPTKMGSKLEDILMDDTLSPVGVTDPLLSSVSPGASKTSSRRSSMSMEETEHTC

[4] = biological target: T2, Replicative DNA helicase DnaB (Mycobacterium tuberculosis, UniProt P9WMR3); experiment: DnaB intein splicing inhibitors, dose response, biochemical, cell-free fluorescence (AID 449749); type: functional
T2 sequence (P9WMR3 whole entry): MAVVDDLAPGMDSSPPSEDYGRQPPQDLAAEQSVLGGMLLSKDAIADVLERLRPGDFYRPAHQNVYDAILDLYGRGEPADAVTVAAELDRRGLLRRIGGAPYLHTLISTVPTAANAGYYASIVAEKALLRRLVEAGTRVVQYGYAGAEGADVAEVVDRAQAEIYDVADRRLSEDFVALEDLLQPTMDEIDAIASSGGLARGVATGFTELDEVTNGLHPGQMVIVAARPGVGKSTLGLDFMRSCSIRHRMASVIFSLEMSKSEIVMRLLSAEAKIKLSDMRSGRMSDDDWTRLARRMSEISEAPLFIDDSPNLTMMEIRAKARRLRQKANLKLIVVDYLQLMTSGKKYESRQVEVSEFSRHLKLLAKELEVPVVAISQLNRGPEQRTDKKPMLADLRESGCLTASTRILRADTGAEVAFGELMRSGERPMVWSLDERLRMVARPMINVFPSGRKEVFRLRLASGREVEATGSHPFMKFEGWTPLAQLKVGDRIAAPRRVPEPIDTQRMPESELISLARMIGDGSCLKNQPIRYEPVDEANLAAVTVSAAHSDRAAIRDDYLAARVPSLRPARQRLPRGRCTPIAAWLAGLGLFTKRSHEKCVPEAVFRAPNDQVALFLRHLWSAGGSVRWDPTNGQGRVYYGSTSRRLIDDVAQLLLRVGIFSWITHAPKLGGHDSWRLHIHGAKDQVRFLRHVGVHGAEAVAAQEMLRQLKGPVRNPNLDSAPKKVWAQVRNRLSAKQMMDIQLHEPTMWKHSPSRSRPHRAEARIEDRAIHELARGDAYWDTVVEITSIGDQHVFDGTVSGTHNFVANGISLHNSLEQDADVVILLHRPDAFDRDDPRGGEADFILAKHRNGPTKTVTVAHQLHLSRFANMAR

BJ [5] = experiment: cells; type: functional, cell-based; details: Homo sapiens
BJ [6] = experiment: BJ-TERT fibroblast viability loss – cell-based, RAS-independent, luminescence, dose response (AID 1933); type: functional; details: Homo sapiens
BJ [7] = experiment: BJ-TERT-LT-ST fibroblast viability loss – cell-based, RAS-independent, luminescence, dose response (AID 1935); type: functional; details: Homo sapiens;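 further: BJ fibroblasts immortalized with TERT plus LT and ST oncogenes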
[8] = DRD fibroblast viability loss – cell-based, non-viral oncogenic, luminescence, dose response (AID 1934); type: functional; details: Homo sapiens
Protein RecA = biological target: T3, Protein RecA (Mycobacterium tuberculosis, UniProt P9WHJ3); experiment: Fluorescence Cell-Free Homogeneous Dose Retest to Identify Inhibitors of RecA-Intein Splicing Activity. [Related pubchem assays (depositor defined):AID2097, AID2223, AID489010, AID492950]; type: functional
T3 sequence (P9WHJ3 whole entry): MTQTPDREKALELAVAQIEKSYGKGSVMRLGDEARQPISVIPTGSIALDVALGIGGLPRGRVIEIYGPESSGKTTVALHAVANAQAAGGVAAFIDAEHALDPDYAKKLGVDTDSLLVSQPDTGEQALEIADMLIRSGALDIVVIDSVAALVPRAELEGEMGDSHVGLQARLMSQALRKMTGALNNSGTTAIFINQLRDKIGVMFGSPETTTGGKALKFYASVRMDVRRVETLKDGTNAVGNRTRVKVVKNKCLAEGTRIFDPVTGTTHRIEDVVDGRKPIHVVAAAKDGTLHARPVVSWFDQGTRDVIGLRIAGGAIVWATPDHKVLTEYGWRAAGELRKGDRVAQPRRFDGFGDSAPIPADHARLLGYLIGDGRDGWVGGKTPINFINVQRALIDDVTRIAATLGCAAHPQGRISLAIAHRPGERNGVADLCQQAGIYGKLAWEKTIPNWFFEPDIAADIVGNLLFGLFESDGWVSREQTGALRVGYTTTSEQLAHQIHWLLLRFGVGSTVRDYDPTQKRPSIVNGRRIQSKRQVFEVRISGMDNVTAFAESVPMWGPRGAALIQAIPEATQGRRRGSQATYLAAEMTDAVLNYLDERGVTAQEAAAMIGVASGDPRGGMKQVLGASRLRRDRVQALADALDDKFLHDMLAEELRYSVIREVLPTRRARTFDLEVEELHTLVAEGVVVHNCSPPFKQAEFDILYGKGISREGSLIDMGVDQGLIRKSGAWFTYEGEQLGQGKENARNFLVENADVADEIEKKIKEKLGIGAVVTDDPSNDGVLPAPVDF

[9] = microbe, parasite or virus in culture; type: functional; details: Mycobacterium tuberculosis
[10] = HEK-293T viability loss after treatment – luminescence, T-cell screen hits, cytotoxicity control for TCR NF-kB inhibitor project, dose response (AID 489026); type: functional, cell-based;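 further: cells exposed to compound about 14 hours before the viability readout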
[11] = biological target: T4, Sentrin-specific protease 7 (Homo sapiens, UniProt Q9BQF6); type: functional;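 further: Luminescence-based dose-response confirmation of ultra-high-throughput screening hits, measuring inhibition of SENP7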
T4 sequence (Q9BQF6 whole entry): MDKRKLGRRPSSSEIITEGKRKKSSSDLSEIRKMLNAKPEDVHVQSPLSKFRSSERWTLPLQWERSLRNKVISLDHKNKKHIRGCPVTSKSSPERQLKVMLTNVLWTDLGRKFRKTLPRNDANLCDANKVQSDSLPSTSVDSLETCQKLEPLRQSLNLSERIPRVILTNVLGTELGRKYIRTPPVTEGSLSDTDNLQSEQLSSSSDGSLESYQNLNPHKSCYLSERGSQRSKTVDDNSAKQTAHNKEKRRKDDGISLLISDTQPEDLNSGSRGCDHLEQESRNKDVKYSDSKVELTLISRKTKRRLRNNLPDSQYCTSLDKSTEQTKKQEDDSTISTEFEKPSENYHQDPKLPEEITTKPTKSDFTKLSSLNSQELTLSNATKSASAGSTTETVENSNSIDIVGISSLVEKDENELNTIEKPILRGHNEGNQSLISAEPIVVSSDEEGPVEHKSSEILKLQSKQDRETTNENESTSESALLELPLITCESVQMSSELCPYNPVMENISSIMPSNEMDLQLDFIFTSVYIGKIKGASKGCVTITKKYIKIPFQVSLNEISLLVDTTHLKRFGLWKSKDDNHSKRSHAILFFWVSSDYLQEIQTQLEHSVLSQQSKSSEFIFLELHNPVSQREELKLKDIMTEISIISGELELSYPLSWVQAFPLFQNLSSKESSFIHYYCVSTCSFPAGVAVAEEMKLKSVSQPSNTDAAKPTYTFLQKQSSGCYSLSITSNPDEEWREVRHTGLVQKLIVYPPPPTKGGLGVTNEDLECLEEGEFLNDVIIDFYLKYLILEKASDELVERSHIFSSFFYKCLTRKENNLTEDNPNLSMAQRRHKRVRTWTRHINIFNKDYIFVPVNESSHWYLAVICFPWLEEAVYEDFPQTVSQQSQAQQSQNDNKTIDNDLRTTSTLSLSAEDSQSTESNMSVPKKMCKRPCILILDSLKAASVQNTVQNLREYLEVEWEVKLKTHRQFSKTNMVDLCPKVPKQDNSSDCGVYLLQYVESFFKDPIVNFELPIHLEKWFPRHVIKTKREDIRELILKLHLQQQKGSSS

Caspase-3 = biological target: T5, Caspase-3 (Homo sapiens, UniProt P42574); type: functional;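 further: Dose-response selectivity test against caspase-3 for candidate inhibitors of sentrin-specific proteases (SENPs)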
T5 sequence (P42574 whole entry): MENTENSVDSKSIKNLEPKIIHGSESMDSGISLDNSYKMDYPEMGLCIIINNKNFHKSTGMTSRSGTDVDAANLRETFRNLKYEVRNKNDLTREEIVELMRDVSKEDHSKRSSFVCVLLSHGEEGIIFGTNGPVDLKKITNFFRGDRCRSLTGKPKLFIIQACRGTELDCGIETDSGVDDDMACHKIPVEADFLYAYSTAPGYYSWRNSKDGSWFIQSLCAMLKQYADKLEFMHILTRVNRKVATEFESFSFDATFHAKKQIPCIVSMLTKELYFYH

[12] = biological target: T6, Sentrin-specific protease 8 (Homo sapiens, UniProt Q96LD8); type: functional;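 further: luminescence read-out of SENP8 inhibition, dose-response confirmation following an ultra-high-throughput screen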
T6 sequence (Q96LD8 whole entry): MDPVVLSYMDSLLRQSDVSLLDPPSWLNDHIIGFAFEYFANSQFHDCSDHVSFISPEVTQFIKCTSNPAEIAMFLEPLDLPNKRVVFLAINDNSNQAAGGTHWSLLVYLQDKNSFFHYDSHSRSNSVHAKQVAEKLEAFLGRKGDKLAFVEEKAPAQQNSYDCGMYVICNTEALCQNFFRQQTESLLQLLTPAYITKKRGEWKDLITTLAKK

[13] = biological target: T7, Sentrin-specific protease 6 (Homo sapiens, UniProt Q9GZR1); type: functional;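 further: Luminescence-based dose-response confirmatory assay of SENP6 inhibition, following up an ultra-high-throughput screen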
T7 sequence (Q9GZR1 whole entry): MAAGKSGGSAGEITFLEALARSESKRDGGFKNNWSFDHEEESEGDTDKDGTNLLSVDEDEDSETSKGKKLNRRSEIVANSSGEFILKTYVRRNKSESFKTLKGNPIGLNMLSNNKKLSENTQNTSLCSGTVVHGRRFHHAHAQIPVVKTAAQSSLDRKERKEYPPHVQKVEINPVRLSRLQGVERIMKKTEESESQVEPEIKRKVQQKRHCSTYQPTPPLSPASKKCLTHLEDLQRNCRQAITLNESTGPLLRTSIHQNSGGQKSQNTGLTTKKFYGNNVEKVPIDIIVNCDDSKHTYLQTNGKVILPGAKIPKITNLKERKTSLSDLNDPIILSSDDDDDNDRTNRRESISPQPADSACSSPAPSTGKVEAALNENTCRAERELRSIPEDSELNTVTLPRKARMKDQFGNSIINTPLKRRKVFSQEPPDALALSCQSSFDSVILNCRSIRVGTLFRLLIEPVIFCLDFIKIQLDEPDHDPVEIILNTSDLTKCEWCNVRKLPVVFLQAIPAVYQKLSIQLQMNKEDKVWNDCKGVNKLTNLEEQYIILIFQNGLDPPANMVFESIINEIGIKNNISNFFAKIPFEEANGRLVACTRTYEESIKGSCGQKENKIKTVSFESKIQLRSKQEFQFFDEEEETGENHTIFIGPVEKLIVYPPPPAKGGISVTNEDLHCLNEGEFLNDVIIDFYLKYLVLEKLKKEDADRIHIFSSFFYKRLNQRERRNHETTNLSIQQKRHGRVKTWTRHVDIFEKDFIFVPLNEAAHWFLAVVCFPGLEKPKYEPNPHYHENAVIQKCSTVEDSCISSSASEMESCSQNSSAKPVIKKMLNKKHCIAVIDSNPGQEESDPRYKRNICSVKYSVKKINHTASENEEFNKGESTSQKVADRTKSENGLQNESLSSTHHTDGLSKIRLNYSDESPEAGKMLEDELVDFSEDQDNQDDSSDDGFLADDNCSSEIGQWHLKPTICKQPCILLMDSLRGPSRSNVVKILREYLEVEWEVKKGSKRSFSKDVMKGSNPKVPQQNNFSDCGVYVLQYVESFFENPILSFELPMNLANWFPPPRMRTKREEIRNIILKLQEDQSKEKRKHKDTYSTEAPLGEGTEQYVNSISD

Which CC50 (Vero [1]) does the source give for `Cc1cc(N2CCN(Cc3nc(-c4ccc(Cl)cc4)oc3C)CC2)cc(C)n1` here?
The CC50 was > 25 µM (active).

What about the IC50 (Vero [2]) of the same compound?
Its IC50 is 23.7 µM (active).

Which AC50 [3] does the source give for `Cc1ccc2c(c1)Oc1ccc(NC(=O)CCl)cc1C(=O)N2` here?
The AC50 was 10.1 µM (active).

And the AC50 [4]?
The AC50 was 15.6 µM (active).

And the EC50 (BJ [5])?
Its EC50 is 2.88 µM (inconclusive).

What about the EC50 (BJ [6]) of the same compound?
Its EC50 is 2.99 µM (active).

And the EC50 (BJ [7])?
Its EC50 is 4.2 µM (inconclusive).

And the EC50 [8]?
Its EC50 is 6.28 µM (active).

What about the EC50 (Protein RecA) of the same compound?
The EC50 was 4.53 µM (active).

What about the CC50 [9] of the same compound?
Its CC50 is 2.96 µM (active).

And the IC50 [10]?
The IC50 was 17.3 µM (active).

Which IC50 [11] does the source give for `COc1ccc(C(=O)Nc2cccc(C(=O)O)c2)cc1S(=O)(=O)N1CCCC1` here?
The IC50 was 6.06 µM (active).

What about the IC50 (Caspase-3) of the same compound?
The IC50 was 46.9 µM (active).

And the IC50 [12]?
The IC50 was 26.6 µM (active).

What about the IC50 [13] of the same compound?
The IC50 was 22.1 µM (active).

Which IC50 [11] does the source give for `Cc1ccc(C(=O)Nc2cccc3cccnc23)cc1C` here?
The IC50 was 3.98 µM (active).

What about the IC50 (Caspase-3) of the same compound?
The IC50 was 15.6 µM (active).

And the IC50 [12]?
The IC50 was 18.8 µM (active).

What about the IC50 [13] of the same compound?
The IC50 was 14.5 µM (active).
